Ends that are not written are not given here.
System: B6SJL mice
Details: intravenous injection of pTG11236/peptide complexes, dead mice per group of five
Experimental: Indicated amounts of the luciferase expression plasmid pTG11236 were mixed with ppTG1 and /or pcTG90/DOPE. […] Muscles, tumors or organs were recovered at the indicated points of time, macerated and tested for luciferase activity with the luciferase assay kit from Promega.
After 20 min incubation at room temperature, the complexes were intravenously injected into B6SJL mice. Mice were sacrificed at day 1. The lungs were recovered, total protein was extracted and luciferase activity was analysed.
The potential of gene transfer with mono-component peptide vectors was investigated in vivo. […] Five mice per group were intravenously injected, the animals were sacrificed at day 1 after injection. Lungs were tested for luciferase activity.

Sequence: GLFRALLRLLRSLWRLLLRA [ppTG20]
- toxicity: less toxic than ppTG1

— patent EP1161957A1, “Complex for transferring an anionic substance of interest into a cell” (TRANSGENE S.A., priority 2000, dated 2001)
